System: A549 cell line
Assay: RIF-Seq gene expression screen of compounds in A549 cells, 384 well plate
Type: cell-based
Procedure: To evaluate if RIF-Seq can be used to detect changes in gene expression due to action of compounds (drugs) and if gene expression signatures can be used to predict mechanism of action of the compound, the inventors performed screen of two compounds in various concentration (delivered to cells in DMSO) and controls (DMSO alone) in high throughput fashion on automated platforms. A549 cell line was seeded using automatic cell dispenser onto low volume imaging plate to concentration of 2 000 cell per well. After over-night incubation, drugs were manually added to cells according to schematics presented in the FIG. 16A, cells were fixated and RIF-Seq protocol was executed using automated robotic liquid handlers. […] Using Gene Set Enrichment Analysis (GESA) inventors compared the differential gene expression data of samples treated with 8.3 μM vorinostat and controls and which differently expressed genes are annotated to pre-defined gene sets contained in the Broad Institute “Hallmarks” list (FIG. 16D).
Cells were cultured in T25 and T75 cell culturing flasks at 37° C. under 5% CO2 in RPMI1640 medium (HeLa, BjHTERT, MCF-7) or F12K medium (A549) with 10% complete fetal bovine serum (FBS), penicillin-streptomycin, and glutamine, up to 80% confluency. Before seeding cells into plates, cells were washed with PBS and dislodged using Tripsin-EDTA and resuspended in fresh medium to a concentration of 66 cells/μL. Manually (100 μL volume, 96 well plate) or by using automatic cell dispenser (30 μL volume, 384 well plate) cells were transferred into desired vessels and incubated over-night. For 96 well plates, the cell culture media were removed and plate was washed twice with 100 μl cold PBS in each well. Then 100 μl 3.7% PFA solution was added to each well and incubated at room temperature for 15 min. For 384 well plates, […] of freshly prepared 16% formaldehyde was added to 30 μl of cell media to obtain a final formaldehyde concentration of 3.7%. Fixation was performed for 20 minutes at room temperature. […]

O=C(CCCCCCC(=O)Nc1ccccc1)NO [vorinostat]
Volcano plot of genes over- and under-expressed upon treatment (8.3 μM concentration vs DMSO controls): number of genes with significantly altered expression | Gene Set Enrichment Analysis (GESA) of differential gene expression against Broad Institute "Hallmarks" gene sets (8.3 μM vorinostat vs DMSO controls): down-regulation of the cell cycle and p53 pathways, E2F targets, cell cycle checkpoints and MYC targets | PCA analyses of gene expression of compound-grouped samples vs DMSO controls (various concentrations): Gradient of differences

— patent publication US12577559B2, “Method for creating a cDNA sequencing library” (priority 2019, dated 2026)
